Usually IC50 stands for the concentration that inhibits the measured activity by half. Low readings indicate greater potency, high ones weaker potency.

For one data set, the system named is 42-MG-BA cells. The experiment in a line: Cell proliferation measurement (CellTiter-Glo, 72 h). As to conditions: Homo sapiens, anti-proliferation, Brain (Glioblastoma). Format: cell-based. As to the method: (§1) The antiproliferative activity of the compounds of the general formula (I) was examined in vitro in human cancer cells. […] After 24 h, cells on one plate (0 h plate) were treated with 30 μl/cavity of CTG solution (Promega Cell Titer Glo (catalogue #G755B and G756B)) and incubated at room temperature for 10 min, and luminescence was measured by means of a VICTOR V (Perkin Elmer), in order to determine cell viability on commencement of treatment. The cells on the test plate were treated with the compounds of the general formula (I) as and incubated at 37° C. for 72 h. The compounds were added to the cells by means of an HP D300 digital dispenser in a 10-step 2,5-fold dilution series generally starting at a maximum final drug concentration of 100 nM, or 30 μM in the case of COV318. As control, the cells were treated with vehicle (DMSO at 0.3% final concentration). After 72 h, the cells were treated with 30 μl/cavity of CTG solution (Promega Cell Titer Glo (catalogue #G755B and G756B)) and incubated at room temperature for 10 min, and luminescence was measured by means of a VICTOR V (Perkin Elmer), in order to determine cell viability at the end of treatment. The percentage effect on cell growth and the IC50 derived therefrom were determined for each test substance using the values from the 0 h plate (=maximum inhibition) and the DMSO control (=minimum inhibition). The IC50 values were calculated using a 4-parameter fit.

Another data set has as its system 92.1 cells. The description is as above. As to conditions: Homo sapiens, anti-proliferation, 92.1, Uveal melanoma. Format: cell-based. The procedure: as §1
The subject of a further data set is GB1 cells. The description is as above. Format: cell-based. The conditions noted are these: Homo sapiens, GB-1, anti-proliferation, GB1, Brain (Glioblastoma). As to the method:
as §1

In another data set the test system is H4 cells. Described as above. Format: cell-based. The conditions noted are these: Homo sapiens, anti-proliferation, H4, Brain (Astrocytoma). As to the method: as §1
In a further data set the test system is HeLa cells. Described as above. Format: cell-based. The conditions noted are these: Homo sapiens, anti-proliferation. The procedure: as §1
The test system of a further data set is M059J cells. The data set is described as above. The conditions noted are these: Homo sapiens, anti-proliferation, Brain (Glioblastoma). In kind it is cell-based. The procedure: as §1
Another data set has as its system Mel202 cells. Described as above. In kind it is cell-based. As to conditions: Homo sapiens, anti-proliferation, Mel202, Uveal melanoma. As to the method: as §1
The next data set has as its system PFSK cells. The description is as above. In kind it is cell-based. The conditions noted are these: Homo sapiens, anti-proliferation, Brain (Primitive neuroectodermal tumor). The procedure:
as §1

For the next data set, the system named is U118-MG cells. The data set is described as above. Format: cell-based. As to conditions: Homo sapiens, U-118-MG, anti-proliferation, Brain (Glioblastoma: Astrocytoma). As to the method:
as §1

Data set [1] in a line: In vivo pharmacokinetics in rats (i.v.). As to conditions: Rat/male/Wistar, 0.5 mg/kg i.v., Plasma 95% + EtOH 4% + DMSO 1%. As to the method: (§2) For in vivo pharmacokinetic experiments test compounds were administered to female CD-1 mice, male Wistar rats, Beagle dogs or Cynomolgus monkeys intravenously at doses of 0.3 to 1 mg/kg formulated as solutions using solubilizers such as PEG400 in well-tolerated amounts.
(§3) Studies may also have been performed as cassette administrations of up to 3 compounds given together simultaneously in low doses.
(§4) For pharmacokinetics after intravenous administration test compounds were given in the female mice and male rat as i.v. bolus and in dogs and monkeys as short term infusion (15 min). Blood samples were taken e.g. at 2 min, 8 min, 15 min, 30 min, 45 min, 1 h, 2 h, 4 h, 6 h, 8 h and 24 h after dosing from the vena jugularis (mouse, rat) or vena saphena (dog, monkey). […] PK parameters were calculated by non-compartmental analysis using a PK calculation software (e.g. Phoenix WinNonlin®, Certara USA, Inc.).
(§5) PK parameters derived from concentration-time profiles after i.v.: CLplasma (in L/kg/h): Total plasma clearance of test compound calculated by dose (in μg/kg) divided by area under the concentration-time curve from t=0 h to infinity (extrapolated) (AUCinf in μg*h/L); CLblood: Total blood clearance of test compound: CLplasma*Cp/Cb (in L/kg/h) with Cp/Cb being the ratio of test compound concentrations in plasma and blood. […]

Data set [2] can be described thus: In vivo pharmacokinetics in dogs (i.v.). The conditions noted are these: Dog/female/Beagle, 0.3 mg/kg i.v., PEG400 50% + Water 40% + EtOH 10%. The procedure:
as §2, §3, §4, §5

The subject of data set [3] is IGR-37 melanoma xenograft. The experiment in a line: In vivo xenotransplantation model of human cancer. The arrangement: species or system mice. The conditions noted are these: for T/C: IGR-37 Melanoma, mean final tumor weight treatment vs control, study end. The source says: The anti-tumor activity of Example 1, ((5S)-5-methyl-6-{3-(trifluoromethyl)-4-[3-(trifluoromethyl)-1H-pyrazol-1-yl]phenyl}-4,5-dihydro-1,2,4-triazin-3(2H)-one), was examined in murine xenotransplantation models of human cancer. For this purpose, mice were implanted subcutaneously with tumor cells. At a mean tumor size of 20-40 mm^2 animals were randomized into treatment and control groups (at least n=10 animals/group) and treatment started with vehicle only or Example 1 (formulation: 90% PEG400/10% Ethanol; application route: per os (“p.o.”), orally). The oral application volume was 10 ml/kg. In the case of twice daily treatments, the time interval between two applications per day was 6-7 h. The tumor size and the body weight were determined at least weekly. The tumor area was detected by means of an electronic caliper [length (mm)×width (mm)]. The experiment was ended when the tumors of the vehicle control reached the pre-determined ethical endpoint based on German and European animal welfare regulations. In vivo anti-tumor efficacy is presented as T/C ratio at study end (Treatment/Control; mean tumor area or weight of treatment group/mean tumor area or weight of control group) in Table 7. A compound having a T/C below 0.5 is defined as active (i.e., effective). Statistical analysis was assessed using SigmaStat software. A one-way analysis of variance was performed and differences to the control were compared by a pair-wise comparison procedure (Dunn's method).

The structures appear in SMILES notation. Marks after values point to notes of the source that are not given here.

Consider `C[C@@H]1NC(=O)NN=C1c1ccc(-n2ccc(C(F)(F)F)n2)c(C(F)(F)F)c1` [Example 1, (5S)-5-methyl-6-{3-(trifluoromethyl)-4-[3-(trifluoromethyl)-1H-pyrazol-1-yl]phenyl}-4,5-dihydro-1,2,4-triazin-3(2H)-one], for which the IC50 was more than 100 nM in the data set with 42-MG-BA cells; 19.4 nM in the data set with 92.1 cells; 8.96 nM in the data set with GB1 cells; 47.7 nM with H4 cells; 1.5 nM with HeLa cells; 40.5 nM with M059J cells. Besides, the IC50 in the data set on Mel202 cells was 74.2 nM; with PFSK cells, 2.95 nM; in the data set on U118-MG cells it was more than 100 nM. The CLblood in data set [1] is 3.67 mL/min/kg; in data set [2], 4.5 mL/min/kg. In addition, the T/C in data set [3] (1 mg/kg 2QD p.o.) was 0.06 *; in [3] (2 mg/kg 2QD p.o.) it was 0.06 *; in [3] (4 mg/kg 2QD p.o.), 0.06 *; in data set [3] (4 mg/kg QD p.o.), 0.07 *. Besides, the “anti-tumor efficacy (reduction of tumor area)” value in [3] (xenograft model of human tumors, melanoma, monotherapy) was “effective in reduction of tumor area in melanoma”.

The values above are taken from patent US20250170136A1, “1,2,4-TRIAZIN-3(2H)-ONE COMPOUNDS FOR THE TREATMENT OF HYPERPROLIFERATIVE DISEASES” (BAYER AKTIENGESELLSCHAFT, priority 2019, published 2025).
